Laboratory results as given in patent publication US20160213742A1, “COMPOSITIONS AND METHODS FOR THE TREATMENT OF FUNGAL INFECTIONS” (priority 2013, published 2016).
≈ marks a conversion by molar mass, not a printed value.

Assays:
Assay type in all cases: cell-based
C. krusei ATCC 14243 = test: microbe, parasite or virus in culture
Protocol: (§1) The test organisms consisted of strains from the Micromyx collection. Reference isolates were originally received from the American Type Culture Collection (ATCC; Manassas, Va.). Organisms received at Micromyx were initially streaked for isolation on Sabouraud dextrose or potato dextrose agar. Colonies were picked by swab from the medium and resuspended in the appropriate broth containing cryoprotectant. The suspensions were aliquoted into cryogenic vials and maintained at −80° C. Prior to testing, Candida isolates were streaked from the frozen vials on Sabouraud dextrose agar. The yeast isolates were incubated at overnight at 35° C. before use. The fungal isolates were incubated at least 7 days on Sabouraud dextrose agar slants at 35° C. before harvesting.
(§2) Isolates were tested in RPMI medium (Catalog No. SH30011.04; Lot No. AWA92121B; HyClone Labs, Logan, Utah) which was prepared according to CLSI guidelines. The pH of the medium was adjusted to 7.0 with 1 N NaOH. The medium was sterile filtered using a 0.2 μm PES filter and stored at 4° C. until used.
(§3) The MIC assay method employed automated liquid handlers to conduct serial dilutions and liquid transfers. Automated liquid handlers included the Multidrop 384 (Labsystems, Helsinki, Finland), Biomek 2000 and Biomek FX (Beckman Coulter, Fullerton Calif.). The wells in columns 2-12 in standard 96-well microdilution plates (Costar 3795) were filled with 150 μl of the correct diluent (50% DMSO for investigational compounds, 100% DMSO for comparator compounds). These would become the mother plates' from which ‘daughter’ or test plates would be prepared. Stocks were diluted to 40× the desired top concentration in the test plates in the indicated solvent, and 300 μL of the 40× stock was dispensed into the appropriate well in Column 1 of the mother plates. The Biomek 2000 was used to make serial serial 2-fold dilutions through Column 11 in the “mother plate”. The wells of Column 12 contained no drug and served as the organism growth control wells.
(§4) The daughter plates were loaded with 185 μL per well of RPMI described above using the Multidrop 384. The daughter plates were prepared using the Biomek FX which transferred 5 μL of drug solution from each well of a mother plate to the corresponding well of the daughter plate in a single step.
(§5) A standardized inoculum of each organism was prepared. For Candida, colonies were picked from the streak plate and a suspension was prepared in RPMI medium equal to a 0.5 McFarland standard, then diluted 1:100 in RPMI and transferred to compartments of sterile reservoirs divided by length (Beckman Coulter). For the Aspergillus isolates, previously prepared and quantitated suspensions were used to make dilutions in RPMI to reach 20× the final concentration. These dilutions were also transferred to compartments of sterile reservoirs divided by length (Beckman Coulter). The final concentration of the Aspergillus isolates was approximately 0.2-2.5×10^4 CFU/mL.
(§6) The Biomek 2000 was used to inoculate the plates. Daughter plates were placed on the Biomek 2000 work surface reversed so that inoculation took place from low to high drug concentration. The Biomek 2000 delivered 10 μL of standardized inoculum into each well. Thus, the wells of the daughter plates ultimately contained 185 μL of RPMI, 5 μL of drug solution, and 10 μL of inoculum. The final concentration of DMSO in the test well was 2.5% for the evaluated comparators and 1.25% for the investigational agents.
(§7) Plates were stacked 3 high, covered with a lid on the top plate, placed into plastic bags, and incubated at 35° C. for approximately 24-48 hr prior to reading. Plates were read when inoculum was confluent in growth wells. Plates were viewed from the bottom using a plate viewer. […] MICs were read where visible growth of the organism was inhibited. MECs were read where the growth shifted to a small, rounded, compact hyphal form as compared to the hyphal growth seen in the growth control well.

C. glabrata ATCC 90030 = test: microbe, parasite or virus in culture
Protocol: as §1, §2, §3, §4, §5, §6, §7

C. albicans ATCC 90028 = test: microbe, parasite or virus in culture
Protocol: as §1, §2, §3, §4, §5, §6, §7

[1] = tested on: C. parapsilosis ATCC 22019; test: microbe, parasite or virus in culture
Protocol: as §1, §2, §3, §4, §5, §6, §7

A. fumigatus MX 5944 = test: MEC assay (Example 31); details: RPMI pH 7.0, 35° C., 24-48 hr
Protocol: as §1, §2, §3, §4, §5, §6, §7

A. flavus MX 5948 = test: MEC assay (Example 31); details: RPMI pH 7.0, 35° C., 24-48 hr
Protocol: as §1, §2, §3, §4, §5, §6, §7

A. fumigatus ATCC 13073 = test: MEC assay (Example 31); details: RPMI pH 7.0, 35° C., 24-48 hr
Protocol: as §1, §2, §3, §4, §5, §6, §7

A. fumigatus MYA-4609 = test: MEC assay (Example 31); details: RPMI pH 7.0, 35° C., 24-48 hr
Protocol: as §1, §2, §3, §4, §5, §6, §7

A. fumigatus MYA-3626 = test: MEC assay (Example 31); details: RPMI pH 7.0, 35° C., 24-48 hr
Protocol: as §1, §2, §3, §4, §5, §6, §7

[2] = C. parapsilosis ATCC 22019, RPMI pH 7.0, 35° C., 24-48 hr

MIC (C. krusei ATCC 14243; ATCC 14243, pH 7) [µg/mL]	MIC (C. glabrata ATCC 90030; ATCC 90030, pH 7) [µg/mL]	MIC (C. albicans ATCC 90028; ATCC 90028, pH 7) [µg/mL]	MIC ([1]; ATCC 22019, pH 7) [µg/mL]	SMILES	MEC (A. fumigatus MX 5944) [µg/mL]	MEC (A. flavus MX 5948) [µg/mL]	MEC (A. fumigatus ATCC 13073) [µg/mL]	MEC (A. fumigatus MYA-4609) [µg/mL]	MEC (A. fumigatus MYA-3626) [µg/mL]	MIC [1, 2] [µg/mL]	MIC (C. krusei ATCC 14243; C. krusei ATCC 14243, RPMI pH 7.0, 35° C., 24-48 hr) [µg/mL]	MIC (C. glabrata ATCC 90030; C. glabrata ATCC 90030, RPMI pH 7.0, 35° C., 24-48 hr) [µg/mL]	MIC (C. albicans ATCC 90028; C. albicans ATCC 90028, RPMI pH 7.0, 35° C., 24-48 hr) [µg/mL]
8 (≈ 5.01 µM)	4 (≈ 2.5 µM)	2 (≈ 1.25 µM)	32 (≈ 20 µM)	CC[C@H](C)C[C@H](C)CCCCCCCCC(=O)N[C@H]1C[C@@H](O)[C@@H](NCCNC(=O)CCNC(=O)[C@H](Cc2ccccc2)NC(=O)[C@H](CC(C)C)NC(=O)[C@H](CCSC)NC(C)=O)NC(=O)[C@@H]2[C@@H](O)CCN2C(=O)[C@H]([C@H](O)CCN)NC(=O)[C@H]([C@H](O)[C@@H](O)c2ccc(O)cc2)NC(=O)[C@@H]2C[C@@H](O)CN2C(=O)[C@H]([C@@H](C)O)NC1=O [Compound 8]	1	1	1	1	1				
	8 (≈ 5.05 µM)	2 (≈ 1.26 µM)		CC[C@H](C)C[C@H](C)CCCCCCCCC(=O)N[C@H]1C[C@@H](O)[C@@H](OCCNC(=O)CCNC(=O)[C@H](Cc2ccccc2)NC(=O)[C@H](CC(C)C)NC(=O)[C@H](CCSC)NC=O)NC(=O)[C@@H]2[C@@H](O)CCN2C(=O)[C@H]([C@H](O)CCN)NC(=O)[C@H]([C@H](O)[C@@H](O)c2ccc(O)cc2)NC(=O)[C@@H]2C[C@@H](O)CN2C(=O)[C@H]([C@@H](C)O)NC1=O [Compound 9]	0.12	0.06 to 0.12	0.06 to 0.12	0.06 to 0.5	0.12	>16 to 32			
>32	32 (≈ 18.4 µM)	2 (≈ 1.15 µM)	>32	CC[C@H](C)C[C@H](C)CCCCCCCCC(=O)N[C@H]1C[C@@H](O)[C@@H](NCCN)NC(=O)[C@@H]2[C@@H](O)CCN2C(=O)[C@H]([C@H](O)CCNC(=O)CCC(=O)NCCOCCOCCNC(=O)[C@H](Cc2ccccc2)NC(=O)[C@H](CC(C)C)NC(=O)[C@H](CCSC)NC=O)NC(=O)[C@H]([C@H](O)[C@@H](O)c2ccc(O)cc2)NC(=O)[C@@H]2C[C@@H](O)CN2C(=O)[C@H]([C@@H](C)O)NC1=O [Compound 16]									

More lines, now with the values behind:

SMILES	MIC (C. krusei ATCC 14243; ATCC 14243, pH 7) [µg/mL]	MIC (C. glabrata ATCC 90030; ATCC 90030, pH 7) [µg/mL]	MIC (C. albicans ATCC 90028; ATCC 90028, pH 7) [µg/mL]	MIC ([1]; ATCC 22019, pH 7) [µg/mL]	MEC (A. fumigatus MX 5944) [µg/mL]	MEC (A. flavus MX 5948) [µg/mL]	MEC (A. fumigatus ATCC 13073) [µg/mL]	MEC (A. fumigatus MYA-4609) [µg/mL]	MEC (A. fumigatus MYA-3626) [µg/mL]	MIC [1, 2] [µg/mL]	MIC (C. krusei ATCC 14243; C. krusei ATCC 14243, RPMI pH 7.0, 35° C., 24-48 hr) [µg/mL]	MIC (C. glabrata ATCC 90030; C. glabrata ATCC 90030, RPMI pH 7.0, 35° C., 24-48 hr) [µg/mL]	MIC (C. albicans ATCC 90028; C. albicans ATCC 90028, RPMI pH 7.0, 35° C., 24-48 hr) [µg/mL]
CC[C@H](C)C[C@H](C)CCCCCCCCC(=O)N[C@H]1C[C@@H](O)[C@@H](NCCN)NC(=O)[C@@H]2[C@@H](O)CCN2C(=O)[C@H]([C@H](O)CCNC(=O)CCNC(=O)[C@H](Cc2ccccc2)NC(=O)[C@H](CC(C)C)NC(=O)[C@H](CCSC)NC(=O)OCC(C)C)NC(=O)[C@H]([C@H](O)[C@@H](O)c2ccc(O)cc2)NC(=O)[C@@H]2C[C@@H](O)CN2C(=O)[C@H]([C@@H](C)O)NC1=O [Compound 5]	>4	4 (≈ 2.42 µM)	2 (≈ 1.21 µM)	>4									
CC[C@H](C)C[C@H](C)CCCCCCCCC(=O)N[C@H]1C[C@@H](O)[C@@H](NCCNC(=O)CCNC(=O)[C@H](Cc2ccccc2)NC(=O)[C@H](CC(C)C)NC(=O)[C@H](CCSC)NC(=O)OCC(C)C)NC(=O)[C@@H]2[C@@H](O)CCN2C(=O)[C@H]([C@H](O)CCN)NC(=O)[C@H]([C@H](O)[C@@H](O)c2ccc(O)cc2)NC(=O)[C@@H]2C[C@@H](O)CN2C(=O)[C@H]([C@@H](C)O)NC1=O [Compound 6]	8 (≈ 4.83 µM)	4 (≈ 2.42 µM)	2 (≈ 1.21 µM)	>16									
CC[C@H](C)C[C@H](C)CCCCCCCCC(=O)N[C@H]1C[C@@H](O)[C@@H](NCCN)NC(=O)[C@@H]2[C@@H](O)CCN2C(=O)[C@H]([C@H](O)CCNC(=O)CCNC(=O)[C@H](Cc2ccccc2)NC(=O)[C@H](CC(C)C)NC(=O)[C@H](CCSC)NC(C)=O)NC(=O)[C@H]([C@H](O)[C@@H](O)c2ccc(O)cc2)NC(=O)[C@@H]2C[C@@H](O)CN2C(=O)[C@H]([C@@H](C)O)NC1=O [Compound 7]	16 (≈ 10 µM)	8 (≈ 5.01 µM)	2 (≈ 1.25 µM)	32 (≈ 20 µM)	1	1	1	0.5	0.5				
CC[C@H](C)C[C@H](C)CCCCCCCCC(=O)N[C@H]1C[C@@H](O)[C@@H](OCCN)NC(=O)[C@@H]2[C@@H](O)CCN2C(=O)[C@H]([C@H](O)CCNC(=O)CCNC(=O)[C@H](Cc2ccccc2)NC(=O)[C@H](CC(C)C)NC(=O)[C@H](CCSC)NC=O)NC(=O)[C@H]([C@H](O)[C@@H](O)c2ccc(O)cc2)NC(=O)[C@@H]2C[C@@H](O)CN2C(=O)[C@H]([C@@H](C)O)NC1=O [Compound 10]	16 (≈ 10.1 µM)	8 (≈ 5.05 µM)	2 (≈ 1.26 µM)	32 (≈ 20.2 µM)	0.12	0.12	0.25	0.12	0.12				
CC[C@H](C)C[C@H](C)CCCCCCCCC(=O)N[C@H]1C[C@@H](O)[C@@H](NCCNC(=O)C(Cc2ccccc2)NC(=O)C(CC(C)C)NC(=O)C(CCSC)NC(=O)Nc2ccc(Cl)cc2)NC(=O)[C@@H]2[C@@H](O)CCN2C(=O)[C@H]([C@H](O)CCN)NC(=O)[C@H]([C@H](O)[C@@H](O)c2ccc(O)cc2)NC(=O)[C@@H]2C[C@@H](O)CN2C(=O)[C@H]([C@@H](C)O)NC1=O (stereo partly shown) [Compound 13a]										32 (≈ 19.5 µM)	16 (≈ 9.77 µM)	8 (≈ 4.88 µM)	2 (≈ 1.22 µM)
CC[C@H](C)C[C@H](C)CCCCCCCCC(=O)N[C@H]1C[C@@H](O)[C@@H](NCCN)NC(=O)[C@@H]2[C@@H](O)CCN2C(=O)[C@H]([C@H](O)CCNC(=O)[C@H](CCCCN)NC=O)NC(=O)[C@H]([C@H](O)[C@@H](O)c2ccc(O)cc2)NC(=O)[C@@H]2C[C@@H](O)CN2C(=O)[C@H]([C@@H](C)O)NC1=O [Compound 25]	2 (≈ 1.6 µM)	0.5 (≈ 0.4 µM)	0.12 (≈ 0.096 µM)	1 (≈ 0.8 µM)									
